The supplement of paper PMC10307832

Legend:
Assay in all cases: relative viability (nuclei count vs DMSO), 5 days (fraction); higher = more cells survive
R406 + AZD7762 = compound: COc1cc(Nc2ncc(F)c(Nc3ccc4c(n3)NC(=O)C(C)(C)O4)n2)cc(OC)c1OC [R406] + NC(=O)Nc1cc(-c2cccc(F)c2)sc1C(=O)N[C@H]1CCCNC1 [AZD7762] (partner 0.2 µM)
Method in brief: (§1)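 After 5 days of treatment, lung cancer cells in 1536-well plates were fixed and stained in a single step (final 0.05% Triton X-100, 1% formaldehyde, 1 ug/ml Hoechst) and their nuclei counted on 4× images. Treatment had been applied by pin tool the day after seeding as one drug alone or as a fixed anchor-drug dose with five library-drug doses (not always all listed) in √10 steps. Relative viability is the nuclei count of treated wells divided by that of vehicle wells, and values are medians of duplicate plates.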

Daporinad + Phenformin = compound: O=C(/C=C/c1cccnc1)NCCCCC1CCN(C(=O)c2ccccc2)CC1 [Daporinad] + N=C(N)NC(=N)NCCc1ccccc1 [Phenformin] (partner 250 µM)
Method in brief: as §1

R406 + Tozasertib = compound: COc1cc(Nc2ncc(F)c(Nc3ccc4c(n3)NC(=O)C(C)(C)O4)n2)cc(OC)c1OC [R406] + Cc1cc(Nc2cc(N3CCN(C)CC3)nc(Sc3ccc(NC(=O)C4CC4)cc3)n2)n[nH]1 [Tozasertib] (partner 0.1 µM)
Method in brief: as §1

R406 + Pemetrexed = compound: COc1cc(Nc2ncc(F)c(Nc3ccc4c(n3)NC(=O)C(C)(C)O4)n2)cc(OC)c1OC [R406] + Nc1nc2[nH]cc(CCc3ccc(C(=O)N[C@@H](CCC(=O)O)C(=O)O)cc3)c2c(=O)[nH]1 [Pemetrexed] (partner 0.2 µM)
Method in brief: as §1

Cell Line | relative viability (R406 + AZD7762; first compound 0.08 µM) | relative viability (R406 + AZD7762; first compound 0.253 µM) | relative viability (R406 + AZD7762; first compound 0.8 µM) | relative viability (R406 + AZD7762; first compound 2.53 µM) | relative viability (R406 + AZD7762; first compound 8 µM) | relative viability (Daporinad + Phenformin; first compound 0.0005 µM) | relative viability (Daporinad + Phenformin; first compound 0.001581 µM) | relative viability (Daporinad + Phenformin; first compound 0.005 µM) | relative viability (Daporinad + Phenformin; first compound 0.01581 µM) | relative viability (R406 + Tozasertib; first compound 0.08 µM) | relative viability (R406 + Tozasertib; first compound 0.253 µM) | relative viability (R406 + Tozasertib; first compound 0.8 µM) | relative viability (R406 + Tozasertib; first compound 2.53 µM) | relative viability (R406 + Tozasertib; first compound 8 µM) | relative viability (R406 + Pemetrexed; first compound 0.08 µM) | relative viability (R406 + Pemetrexed; first compound 0.253 µM) | relative viability (R406 + Pemetrexed; first compound 0.8 µM) | relative viability (R406 + Pemetrexed; first compound 2.53 µM) | relative viability (R406 + Pemetrexed; first compound 8 µM)
NCI-H1734 | 0.58 | 0.582 | 0.679 | 0.228 | 0.313 | 0.437 | 0.496 | 0.479 | 0.299 | 0.294 | 0.272 | 0.262 | 0.26 | 0.206 | 0.394 | 0.417 | 0.453 | 0.45 | 0.322
NCI-H1755 | 0.382 | 0.493 | 0.369 | 0.335 | 0.253 | 0.648 | 0.628 | 0.639 | 0.667 | 0.463 | 0.529 | 0.605 | 0.504 | 0.331 | 0.474 | 0.419 | 0.426 | 0.385 | 0.33
NCI-H1793 | 0.471 | 0.368 | 0.415 | 0.283 | 0.413 | 0.322 | 0.395 | 0.403 | 0.564 | 0.333 | 0.353 | 0.389 | 0.155 | 0.109 | 0.711 | 1.09 | 1.15 | 0.147 | 0.157
NCI-H1915 | 0.687 | 0.751 | 0.735 | 0.614 | 0.614 | 0.328 | 0.398 | 0.362 | 0.365 | 0.459 | 0.474 | 0.521 |  | 0.463 | 0.498 | 0.475 | 0.497 | 0.439 | 0.36
NCI-H1944 | 0.484 | 0.449 | 0.523 | 0.388 | 0.349 | 0.206 | 0.219 | 0.214 | 0.241 | 0.252 | 0.272 | 0.241 | 0.228 | 0.181 | 0.617 | 0.617 | 0.684 | 0.571 | 0.411
NCI-H1975 |  | 0.757 | 0.771 | 0.341 | 0.325 | 0.435 | 0.404 | 0.457 | 0.401 | 0.75 | 0.918 | 0.785 | 0.189 | 0.109 | 0.29 | 0.322 | 0.272 | 0.261 | 0.175
NCI-H1993 | 0.741 | 1.1 | 0.727 | 0.719 | 0.537 | 0.536 | 0.553 | 0.535 | 0.578 | 0.597 | 0.536 | 0.605 | 0.493 | 0.432 | 0.618 | 0.5 | 0.678 | 0.578 | 0.464
NCI-H2085 | 1.03 | 1 | 1.02 | 0.72 | 0.726 | 0.816 | 0.855 | 0.796 | 0.816 | 0.83 | 0.892 | 0.872 | 0.632 | 0.379 | 0.89 | 0.902 | 0.867 | 0.64 | 0.589
NCI-H2087 | 1.36 | 1.47 | 1.33 | 1.06 | 1.25 | 0.405 | 0.601 | 0.535 | 0.496 | 0.293 | 0.238 | 0.298 |  | 0.253 | 0.712 | 0.733 | 0.683 | 0.746 | 0.679
NCI-H2126 | 0.937 | 1.12 | 1.08 | 0.909 | 0.858 | 0.541 | 0.533 | 0.586 | 0.62 | 0.829 | 0.962 | 0.848 | 0.806 | 0.545 | 0.749 | 0.664 | 0.722 | 0.599 | 0.61
NCI-H2170 | 0.81 | 0.766 | 0.948 | 0.596 | 0.708 | 0.379 | 0.424 | 0.415 | 0.458 | 0.758 | 0.703 | 0.708 | 0.615 | 0.632 | 0.194 | 0.262 | 0.238 | 0.24 | 0.221
NCI-H2342 | 0.505 | 0.53 | 0.476 | 0.433 | 0.392 | 0.62 | 0.61 | 0.595 | 0.546 | 0.494 | 0.644 | 0.491 | 0.469 | 0.479 | 0.737 | 0.835 | 0.862 | 0.749 | 0.774
NCI-H2347 | 0.785 | 0.81 | 0.776 | 0.422 | 0.529 | 0.53 | 0.319 | 0.447 | 0.379 | 0.537 | 0.671 | 0.682 | 0.458 | 0.347 | 0.402 | 0.398 | 0.433 | 0.395 | 0.387
NCI-H2405 | 0.715 | 0.869 | 0.85 | 0.692 | 0.244 | 0.43 | 0.459 | 0.484 | 0.366 | 0.76 | 0.845 | 0.82 | 0.804 | 0.542 | 1.14 | 1.22 | 1.08 | 0.495 | 0.224
NCI-H3122 | 1.06 | 1.04 | 0.969 | 0.804 | 0.924 | 0.36 | 0.391 | 0.387 | 0.333 | 0.491 | 0.415 | 0.34 | 0.328 | 0.45 | 0.198 | 0.202 | 0.189 | 0.194 | 0.17
PC-3 [JPC-3] | 0.817 | 0.819 | 0.923 | 0.684 | 0.381 | 0.494 | 0.481 | 0.478 | 0.471 | 0.942 | 0.964 | 1.01 | 0.88 | 0.516 | 1.08 | 1.25 | 1.25 | 0.882 | 0.455
PC-14 | 0.296 | 0.435 | 0.418 | 0.403 | 0.281 | 0.357 | 0.633 | 0.488 | 0.4 | 0.57 | 0.681 | 0.623 | 0.546 | 0.603 | 0.139 | 0.131 | 0.135 | 0.101 | 0.042
